Experimental data published in ChEMBL document CHEMBL1156990, “[(11)C]Dimebon, radiosynthesis and lipophilicity of a new potential PET agent for imaging of Alzheimer's disease and Huntington's disease” (Bioorg Med Chem Lett, 2010).

Test: Octanol-water partition coefficient, log P by reverse phase HPLC method
Format: physicochemical

Row | logP | Structure (SMILES)
1 | 2.53 | Cc1ccc2c(c1)c1c(n2CCc2ccc(C)nc2)CCN([11CH3])C1
2 | 2.21 | CC(=O)N(Cc1ccccc1O[11CH3])c1cnccc1Oc1ccccc1
